This is an account of results in article PMC11448502, “Cryo-EM structures of the human P2X1 receptor reveal subtype-specific architecture and antagonism by supramolecular ligand-binding” (Nature Communications, 2024).

Structures are written as SMILES. Residue numbers refer to the chain shown, from its start. Values joined by “and” are separate entries in the source; they are usually repeats but may differ in a detail not shown here. Equal values may be shown once. “Also recorded” adds a separate entry of the source.

One experiment concerns the target T1, hP2X3 WT (Homo sapiens, UniProt P56373).
T1 construct: expressed in transfected cells
T1 sequence (P56373 1-397): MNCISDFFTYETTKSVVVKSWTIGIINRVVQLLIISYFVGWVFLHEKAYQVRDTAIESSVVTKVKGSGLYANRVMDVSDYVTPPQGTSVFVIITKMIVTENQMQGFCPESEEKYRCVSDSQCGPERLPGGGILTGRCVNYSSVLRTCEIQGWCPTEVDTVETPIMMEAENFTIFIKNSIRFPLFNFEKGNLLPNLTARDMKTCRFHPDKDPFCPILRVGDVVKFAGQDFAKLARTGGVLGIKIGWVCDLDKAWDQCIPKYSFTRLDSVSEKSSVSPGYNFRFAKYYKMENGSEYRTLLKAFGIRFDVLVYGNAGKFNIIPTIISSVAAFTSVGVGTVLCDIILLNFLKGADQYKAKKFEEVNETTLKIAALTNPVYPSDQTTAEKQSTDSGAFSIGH
In words: ATP dose response (EC50), TEVC in oocytes. The format is cell-based.

For another experiment, the target named is T2, hP2X1 K309A (Homo sapiens, UniProt P51575, K309A).
T2 construct: hP2X1 mRNA that was made from linearized full-length wild-type or mutant pcDNA 3.1x; expressed in transfected cells; host or cells: Xenopus laevis oocytes (mRNA injection)
T2 sequence (P51575 1-399 K309A): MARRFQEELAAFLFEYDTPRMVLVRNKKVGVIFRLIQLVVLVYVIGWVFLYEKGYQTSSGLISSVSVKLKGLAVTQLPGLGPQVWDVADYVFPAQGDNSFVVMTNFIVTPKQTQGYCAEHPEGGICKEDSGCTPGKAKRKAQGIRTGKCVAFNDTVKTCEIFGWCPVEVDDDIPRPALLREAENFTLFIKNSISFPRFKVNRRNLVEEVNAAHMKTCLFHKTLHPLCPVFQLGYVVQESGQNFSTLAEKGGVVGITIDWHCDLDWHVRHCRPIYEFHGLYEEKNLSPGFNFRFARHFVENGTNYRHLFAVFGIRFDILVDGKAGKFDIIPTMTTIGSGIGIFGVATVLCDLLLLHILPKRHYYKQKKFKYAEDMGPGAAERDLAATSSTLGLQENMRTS
In words: ATP dose response (EC50), TEVC in oocytes. It is filed as cell-based. The protocol: (§1) Oocytes were purchased defolliculated from Ecocyte Bioscience in Barth’s Solution (88 mM NaCl, 1 mM KCl, 0.82 mM MgSO4, 0.33 mM Ca(NO3)2, 0.41 mM CaCl2, 2.4 mM NaHCO3, 5 mM Tris-HCl) supplemented with penicillin (100 U/mL) and streptomycin (100 µg/mL). Xenopus laevis oocytes were then injected with 50 nL of 100 ng/μL hP2X1 mRNA that was made from linearized full-length wild-type or mutant pcDNA 3.1x according to the protocol provided in the mMessage mMachine kit (Invitrogen). Injected oocytes were allowed to express for ~20 hours at 18 °C before recording was performed.
(§2) Data acquisition was performed using the Oocyte Clamp OC-725C amplifier and pClamp 8.2 software. Buffers were applied using a gravity fed RSC-200 Rapid Solution Changer that flows at ~5 mL/min. All experiments use Sutter filamented glass 10 cm in length with an inner diameter of 0.69 mm and an outer diameter of 1.2 mm to impale oocytes and clamp the holding voltage at −60 mV. Experiments were recorded in buffer containing 10 mM HEPES (pH 7.4), 140 mM NaCl, 5 mM KCl, 2 mM CaCl2, 2 mM MgCl2, and 10 mM glucose.
(§3) Excitatory responses to a dilution series of ATP between 6.4 nM and 10 mM were examined across the different mutants. Each evoked response was normalized to an initial ATP-induced current evoked by the following concentrations: 500 µM ATP for R292A, 2 mM ATP for K309A, and 100 µM ATP for the remaining mutants and wild-type receptor. The data was fit in Prism 9 using the nonlinear regression named “EC50, x is concentration” to afford EC50 values. This value was then averaged amongst each singular condition and reported as an average plus or minus the standard deviation.

In another experiment the target is T3, hP2X1 R139A (Homo sapiens, UniProt P51575, R139A).
T3 construct: hP2X1 mRNA that was made from linearized full-length wild-type or mutant pcDNA 3.1x; expressed in transfected cells; host or cells: Xenopus laevis oocytes (mRNA injection)
T3 sequence (P51575 1-399 R139A): T2 sequence (P51575 1-399 K309A) with R139A, A309K
In words: ATP dose response (EC50), TEVC in oocytes. The format is cell-based. The protocol:
as §1, §2, §3

The subject of a further experiment is P2X3. Also on record: method as in doi: 10.1111/bph.15299. The following applies: reviewer comment, ref doi: 10.1111/bph.15299, read-out: EC50 of ATP; cited from earlier work.
Another experiment relates to thrombosis. The following applies: in vivo; cited from earlier work.

In general, EC50 refers to the concentration needed to bring the measured effect to its halfway point. For `Nc1ncnc2c1ncn2[C@@H]1O[C@H](COP(=O)(O)OP(=O)(O)OP(=O)(O)O)[C@@H](O)[C@H]1O` [ATP], the EC50 on hP2X3 WT (TEVC) was 800 ± 100 nM; in the experiment with P2X3, 500 to 1000 nM. In addition, the “Normalized Current” value was 1.024 and 0.937 and 0.934 at hP2X3 WT ([ATP] 1.000E-04 M); 0.9021 and 0.8096 and 0.6657 on hP2X3 WT ([ATP] 1.563E-06 M); 1.229 and 0.9489 and 0.8224 on hP2X3 WT ([ATP] 2.500E-05 M); 0.1693 and 0.1661 and 0.1374 at hP2X3 WT ([ATP] 3.906E-07 M); 0.9276 and 0.9021 and 0.8266 at hP2X3 WT ([ATP] 6.250E-06 M); 0.0748 and 0.0739 and 0.04276 at hP2X3 WT ([ATP] 9.766E-08 M). Besides, the “Normalized Current” value on hP2X1 K309A ([ATP] 1.000E-02 M) is 1.006 and 0.9573 and 1.036; at hP2X1 K309A ([ATP] 2.000E-03 M), 0.8423 and 0.8039 and 0.8072; at hP2X1 K309A ([ATP] 3.200E-06 M), 0.000000; on hP2X1 K309A ([ATP] 4.000E-04 M) it was 0.3324 and 0.3289 and 0.2846; on hP2X1 R139A ([ATP] 1.000E-04 M), 0.9464 and 0.9017 and 0.9178; at hP2X1 R139A ([ATP] 2.000E-05 M), 0.8825 and 0.6805 and 0.736. Moreover, the “Normalized Current” value on hP2X1 R139A ([ATP] 4.000E-06 M) is 0.6603 and 0.5057 and 0.6077; at hP2X1 R139A ([ATP] 5.000E-04 M), 1.062 and 0.93 and 1.008. In addition, on hP2X3 WT (mean ± SD of three EC50 traces), the “Hill slope of activation by ATP” value came out at 2.5 ± 0.6. Besides, the “EC50 of ATP” value at hP2X1 K309A (TEVC) is “impacted”; on hP2X1 R139A (TEVC), “no effect; also recorded: without affecting”.
As to `O=C(Nc1cc(C(=O)Nc2ccc(S(=O)(=O)O)cc2S(=O)(=O)O)cc(C(=O)Nc2ccc(S(=O)(=O)O)cc2S(=O)(=O)O)c1)Nc1cc(C(=O)Nc2ccc(S(=O)(=O)O)cc2S(=O)(=O)O)cc(C(=O)Nc2ccc(S(=O)(=O)O)cc2S(=O)(=O)O)c1` [NF449, 4,4’,4”,4’’’-(carbonylbis(imino-5,1,3-benzenetriylbis(carbonylimino)))tetrakis-benzene-1,3-disulfonic acid], the effect on thrombosis result in the experiment on thrombosis is on record as “inhibitory effect”.
